From patent US20210267992A1, “5-ACETAMIDOMETHYL-OXAZOLIDINONE DERIVATIVES FOR USE IN THE TREATMENT OF CANCER” (Varsity Pharmaceuticals Limited, priority 2018, published 2021)
Entries after “also recorded” stand apart in the source; their conditions may differ.

How the values were obtained:
[1] = tested on: BRCA1 deficient ovarian cancer cells, UWB1.289; experiment: BrdU proliferation assay, single drugs after cisplatin; format: cell-based; settings: cisplatin 1 μM for 24 hours followed by the drug alone for 6 days, result in words
Method: (§1) Methods • Cell morphology, viability and proliferation rate was assessed by visual and counting method. • Day 0: Cells were split and around 1000 cells/well were seeded in normal complete media. • Day 1: Cisplatin was added at 1 μM to the test and controls wells. Untreated cells were left as control. • Day 2: medium containing cisplatin was discarded and new fresh media containing bromodeoxyuridine (BrdU) and the drugs at the concentrations shown in table 1, below, was added. • Day 6: medium was discarded, and cells fixed. BrdU assay was performed according to the manufacturer. • Controls comprised cells without BrdU (Blank), untreated cells (UN) and Cisplatin treated cells for 24 hours only (CIS). • All experiments were conducted in triplicate.
(§2) BrdU Proliferation Assay • After 6 days of incubation with drugs, the media was discarded, and cells were fixed for 30 minutes, at room temperature, with FixDenat Solution. • FixDenat Solution was then removed and substituted with Anti-BrdU-POD working solution for 2 hours at room temperature. • Plates were then washed 3 times with Washing buffer. • Substrate solution was added. • The reaction was stopped by adding H2SO4 and immediately read at 450 nm.
Data was analysed using Excel and Prism software. The average of the absorbances and the standard error were calculated using the technical triplicate for each condition.

[2] = tested on: UWB1.289 cell line; experiment: BrdU proliferation assay, combinations of PARPis and ATR inhibitors after cisplatin; format: cell-based; settings: for proliferation in combination with Aurothiomalate (ATM), compared with the gold complex alone: then Aurothiomalate (ATM) plus the labelled drug for 6 days; for proliferation in combination with auranofin, compared with the gold complex alone: then auranofin plus the labelled drug for 6 days
Method: as §1, §2
The methods were the same as described in example 1 except that the new fresh media added on day 2 contained bromodeoxyuridine (BrdU) and the drugs at the concentrations shown in table 2, below. All possible combinations of concentrations for compounds A and B were tested.

[3] = tested on: MDA-MB-436 (BRCA1 mutation) breast cancer cell xenograft; experiment: MDA-MB-436 (BRCA1 mutation) breast cancer cell xenograft experiment; format: in vivo; settings: mice, 100 mg/kg BID orally, MDA-MB-436 xenograft
Method: The MDA-MB-436 tumour cell line was maintained in vitro as monolayer culture in DMEM medium modified supplemented with 10% heat inactivated foetal bovine serum at 37° C. in an atmosphere of 5% CO2 in air. The tumour cells were routinely sub-cultured once a week by trypsin-EDTA treatment, not to exceed 4-5 passages. The cells growing in an exponential growth phase were harvested and counted for tumour inoculation.
All mice were inoculated subcutaneously on the right flank with MDA-MB-436 tumour cells (1×10^7) in 0.1 ml of DMEM with Matrigel mixture (1:1 ratio) for tumour development. The treatment started when the mean tumour size reached is approximately 100-150 mm^3. Mice were then be assigned to groups such that the mean tumour volume is the same for each treatment group. The treatments were administered to the tumour-bearing mice orally at 12 hour intervals.
560 mg linezolid was dissolved in 1.4 ml ethanol and 12.6 ml PEG400. The solution was vortexed and sonicated with high energy ultrasonic probe to get a uniform solution. The resultant solution was used for 1 day.
The measurement of tumour size was conducted twice weekly with a calliper and recorded. The tumour volume (mm3) was estimated using the formula: TV=a×b^2/2, where “a” and “b” are long and short diameters of a tumour, respectively.

[4] = UWB1.289, cisplatin 1 μM 24 hours, result in words

`OC[C@H]1O[C@H]([S-])[C@H](O)[C@@H](O)[C@@H]1O.[Au+]` [ATG, Aurothioglucose] was tested. Which “reduction of proliferation of the cancer cells (BrdU absorbance)” value (“reduction … (BrdU absorbance)” below) [1] did it give?
Its value is “effectively reduce proliferation”.

How did the “reduction … (BrdU absorbance)” value [1] turn out when `O=C(O)CC([S-])C(=O)O.[Au+]` (stereo not shown) [ATM, Aurothiomalate] was run?
The value was “effectively reduce proliferation”.

What does the source list for `C[C@@H]1COCCN1c1cc(C2([S@](C)(=N)=O)CC2)nc(-c2cc[nH]c3nccc2-3)n1` [AZD, AZD6738]?
proliferation in combination with Aurothiomalate (ATM), compared with the gold complex alone [2, 4]: particularly marked improvement over the gold complexes when used alone; proliferation in combination with auranofin, compared with the gold complex alone [2, 4]: particularly marked improvement over the gold complexes when used alone; proliferation in combination with olaparib, compared with olaparib alone ([2]; UWB1.289, cisplatin 1 μM 24 hours, then olaparib plus the labelled drug for 6 days, result in words): further decreased proliferation when compared to the degree of proliferation observed for olaparib alone

How did the “reduction … (BrdU absorbance)” value [1] turn out when `O=C(c1cc(Cc2n[nH]c(=O)c3ccccc23)ccc1F)N1CCN(C(=O)C2CC2)CC1` [Olaparib] was run?
Its value is “effectively reduce proliferation”.

`CC(=O)OC[C@H]1O[C@@H]([S-])[C@H](OC(C)=O)[C@@H](OC(C)=O)[C@@H]1OC(C)=O.CCP(CC)CC.[Au+]` [auranofin] was tested. Which “reduction … (BrdU absorbance)” value [1] did it give?
The value was “effectively reduce proliferation”.

`CC(=O)NC[C@H]1CN(c2ccc(N3CCOCC3)c(F)c2)C(=O)O1` [linezolid] was tested. Which “reduced tumour size compared to the control group” value [3] did it give?
Its value is 38%.

And the “reduction … (BrdU absorbance)” value [1]?
Its value is “reduce proliferation of cancer cells when used alone”.

And the “proliferation in combination with Aurothiomalate (ATM), compared with the gold complex alone” value [2, 4]?
Its value is “particularly marked improvement over the gold complexes when used alone; also recorded: particularly noticeable synergistic effect”.

What about the “proliferation in combination with auranofin, compared with the gold complex alone” value [2, 4] of the same compound?
The value was “particularly marked improvement over the gold complexes when used alone”.

What about the “synergistic effect on proliferation when used with a PARPi” value ([2]; UWB1.289, combination with a PARPi, result in words) of the same compound?
Its value is “synergistic effect”.

What about the percentage proliferation ([2]; UWB1.289, linezolid 100 nM together with Aurothiomalate (ATM) 30 nM, after cisplatin 1 μM 24 hours) of the same compound?
Its percentage proliferation is 2%.

And the “proliferation reduction compared with AZD6738” value ([2]; inventors' conclusion, result in words)?
Its value is “equivalent to proliferation reduction achieved by AZD6738”.

`NC(=O)c1cccc2cn(-c3ccc([C@@H]4CCCNC4)cc3)nc12` [niraparib] was tested. Which “reduction … (BrdU absorbance)” value [1] did it give?
Its value is “effectively reduce proliferation”.

Which “reduction … (BrdU absorbance)” value [1] does the source give for `CNCc1ccc(-c2[nH]c3cc(F)cc4c3c2CCNC4=O)cc1` [rucaparib] here?
Its value is “effectively reduce proliferation”.
